Results taken from patent US6894037B2, “2-methylene-19-nor-20(S)-25-methyl-1α-hydroxycalciferol and its uses” (Wisconsin Alumni Research Foundation, priority 2003, dated 2005).
“Also recorded” adds a separate entry of the source.

Legend:
[1] = previous work; cited from earlier work
CD-1 mice [2] = test: Bone calcium mobilization: serum calcium of mice fed 0.02% calcium diet after single oral dose; format: in vivo; conditions: for Bone Calcium Mobilization (serum calcium): single oral gavage, 0.02% calcium diet; for Bone calcium mobilization activity (bone resorption in vivo), in words: single oral dose, mice on 0.02% calcium diet
Excerpt: Goal: Determine whether or not TMM has bone calcium mobilization activity and how it compares to 1,25(OH)2D3 and 2-methylene-19-nor-20(S)-1α, 25-(OH)2D3 (hereinafter referred to as 2MD).
5-6 week old CD-1 mice were placed in the +D mouse room and fed chow diet. They were allowed to acclimate for 5 days before being switched to a purified diet described by Yang et al (Arch. Biochem. Biphys. 303, 98, 1993) containing 0.02% calcium and 0.3% P. Two days after the diet switch, dose administration began. Experimental Design:
All animals were weighed prior to dosing. The animals were divided into groups containing 5 animals/group. All animals were administered the drug by oral gavage one time. The dose was delivered in 100 μl Neobee oil/25 g mouse. […] The rise in serum calcium comes from bone mobilization only since no calcium is available from the intestine.
Mice fed a 0.02% calcium diet can only elevate their serum calcium levels by resorbing bone because no calcium is available through intestinal absorption. […] At lower doses, there was no significant elevation of serum calcium. […] Thus, the importance of the 25-hydroxyl for bone calcium mobilization is illustrated.

[3] = system: porcine intestinal vitamin D receptor; test: Competitive binding to the porcine intestinal vitamin D receptor, displacement of [3H]-1,25-(OH)2-D3; conditions: compared with the native hormone 1,25-(OH)2D3; FIG. 1
Description: FIG. 1 is a graph illustrating the relative activity of 2-methylene-19-nor-20(S)-25-methyl-1α-hydroxycalciferol or 1α,25-dihydroxyvitamin D3 to compete for binding of [3H]-1,25-(OH)2—D3 to the vitamin D pig intestinal nuclear receptor;
Competitive binding of the analog to the porcine intestinal receptor was carried out by the method described by Dame et al (Biochemistry 25, 4523-4534, 1986).
Competitive binding of 1α, 25-(OH)2D3 and the synthesized vitamin D analog to the porcine intestinal vitamin D receptor was carried out in triplicate on two different occasions. ED50 values can be derived from dose-response curves (FIG. 1) and represent the analog concentration required for 50% displacement of the radiolabeled 1α,25-(OH)2D3 from the receptor protein. Binding ratio can then be determined from the ratio of the analog average ED50 to the ED50 for 1α,25-(OH)2D3.

CD-1 mice [4] = test: Intestinal calcium transport: serum calcium of alendronate-treated mice on 0.47% calcium diet; format: in vivo; conditions: FIG. 3
Excerpt: FIG. 3 is a graph illustrating serum calcium versus time of mice injected with vehicle plus alendronate, with 1α,25-dihydroxyvitamin D3 plus alendronate, or with 2-methylene-19-nor-20(S)-25-methyl-1α-hydroxycalciferol (TMM) plus alendronate. Since alendronate blocks bone resorption the rise in serum calcium reflects only intestinal absorption.
In this measurement, alendronate is used to block bone resorption so the rise in serum calcium is because of increased calcium absorption from the intestine.
Goal: Determine whether or not TMM has intestinal calcium transport activity and how it compares to 1,25(OH)2D3.
5-6 week old CD-1 mice were placed in the +D mouse room and fed chow diet. They were allowed to acclimate for 7 days before being switched to a diet containing 0.47% calcium.
All animals were weighed prior to dosing and divided into groups containing 5 animals/treatment group. […] Once all time points were collected, the serum was diluted 1:50 in 0.1% Lanthum Chloride and analyzed by atomic absorption spectrometry for determination of total serum calcium levels. • Group 1: Neobee oil+Alendronate (1.75 mg/kg bw) • Group 2: 40.5 ug 1,25(OH)2D3/kg bw+Alendronate (1.75 mg/kg bw) • Group 3: 4.5 ug TMM/kg bw+Alendronate (1.75 mg/kg bw) • Group 4: 13.5 ug TMM/kg bw+Alendronate (1.75 mg/kg bw) • Group 5: 40.5 ug TMM/kg bw+Alendronate (1.75 mg/kg bw) Results: […]

HL-60 promyelocytes = test: Differentiation of HL-60 promyelocytes into monocytes (NBT reduction); format: cell-based; conditions: compared with 1,25-(OH)2D3; FIG. 2
Description: FIG. 2 is a graph illustrating the percent HL-60 cell differentiation as a function of the concentration of 2-methylene-19-nor-20(S)-25-methyl-1α-hydroxycalciferol or 1α,25-dihydroxyvitamin D3; and
The differentiation of HL-60 promyelocytes into monocytes was determined as described by Ostrem et al (J. Biol. Chem. 262, 14164-14171, 1987).
Induction of differentiation of HL-60 promyelocytes to monocytes by 1α,25-(OH)2D3 and the synthesized vitamin D analog was determined by measuring the percentage of cells reducing nitro blue tetrazolium (NBT). The experiment was repeated three times. The values ED50 can be derived from dose-response curves (FIG. 2) and represent the analog concentration capable of inducing 50% maturation. Differentiation activity ratio can then be determined from the ratio of the analog average ED50 to the ED50 for 1α,25-(OH)2D3.

Row | SMILES | Bone calcium mobilization activity (bone resorption in vivo), in words (CD-1 mice [2]; Table 1) | Bone Calcium Mobilization (serum calcium) (CD-1 mice [2]; 0.5 μg/kg, 0 hr (predose)) | Bone Calcium Mobilization (serum calcium) (CD-1 mice [2]; 0.5 μg/kg, 24 hr) | Bone Calcium Mobilization (serum calcium) (CD-1 mice [2]; 0.5 μg/kg, 48 hr) | Bone Calcium Mobilization (serum calcium) (CD-1 mice [2]; 0.5 μg/kg, 72 hr) | Bone Calcium Mobilization (serum calcium) (CD-1 mice [2]; 1.5 μg/kg, 0 hr (predose)) | Bone Calcium Mobilization (serum calcium) (CD-1 mice [2]; 1.5 μg/kg, 24 hr) | Bone Calcium Mobilization (serum calcium) (CD-1 mice [2]; 1.5 μg/kg, 48 hr) | Bone Calcium Mobilization (serum calcium) (CD-1 mice [2]; 1.5 μg/kg, 72 hr) | Bone Calcium Mobilization (serum calcium) (CD-1 mice [2]; 4.5 μg/kg, 0 hr (predose)) | Bone Calcium Mobilization (serum calcium) (CD-1 mice [2]; 4.5 μg/kg, 24 hr) | Bone Calcium Mobilization (serum calcium) (CD-1 mice [2]; 4.5 μg/kg, 48 hr) | Bone Calcium Mobilization (serum calcium) (CD-1 mice [2]; 4.5 μg/kg, 72 hr) | Bone Calcium Mobilization (serum calcium) (CD-1 mice [2]; 13.5 μg/kg, 0 hr (predose)) | Bone Calcium Mobilization (serum calcium) (CD-1 mice [2]; 13.5 μg/kg, 24 hr) | Bone Calcium Mobilization (serum calcium) (CD-1 mice [2]; 13.5 μg/kg, 48 hr) | Bone Calcium Mobilization (serum calcium) (CD-1 mice [2]; 13.5 μg/kg, 72 hr) | further results
1 | C=C1/C(=C\C=C2/CCC[C@]3(C)[C@@H]([C@H](C)CCCC(C)(C)O)CC[C@@H]23)C[C@@H](O)C[C@@H]1O [1α,25(OH)2D3, 1α,25-dihydroxyvitamin D3] | effective at 50 μg/kg bw and 450 μg/kg bw | – | – | – | – | – | – | – | – | – | – | – | – | – | – | – | – | Intestinal calcium absorption activity relative to 2-methylene-19-nor-20(S)-1α, 25-(OH)2D3 [1]: about the same activity; Bone Calcium Mobilization (serum calcium) (CD-1 mice [2]; 50 μg/kg, 0 hr (predose)): 8.8 ± 0.2 mg/dL; Bone Calcium Mobilization (serum calcium) (CD-1 mice [2]; 50 μg/kg, 24 hr): 10.9 ± 0.1 mg/dL; Bone Calcium Mobilization (serum calcium) (CD-1 mice [2]; 50 μg/kg, 48 hr): 9.6 ± 0.3 mg/dL; Bone Calcium Mobilization (serum calcium) (CD-1 mice [2]; 50 μg/kg, 72 hr): 9.1 ± 0.2 mg/dL; Bone Calcium Mobilization (serum calcium) (CD-1 mice [2]; 450 μg/kg, 0 hr (predose)): 8.8 ± 0.2 mg/dL; Bone Calcium Mobilization (serum calcium) (CD-1 mice [2]; 450 μg/kg, 24 hr): 11.6 ± 0.3 mg/dL; Bone Calcium Mobilization (serum calcium) (CD-1 mice [2]; 450 μg/kg, 48 hr): 11.4 ± 0.7 mg/dL; Bone Calcium Mobilization (serum calcium) (CD-1 mice [2]; 450 μg/kg, 72 hr): 9.4 ± 0.4 mg/dL
2 | C=C1[C@H](O)CC(=C/C=C2\CCC[C@]3(C)[C@@H]([C@@H](C)CCCC(C)(C)O)CC[C@@H]23)C[C@H]1O [2MD, 2-methylene-19-nor-20(S)-1α, 25-(OH)2D3] | – | 8.8 ± 0.3 mg/dL | 9.4 ± 0.2 mg/dL | 9.2 ± 0.2 mg/dL | 8.9 ± 0.2 mg/dL | 8.8 ± 0.2 mg/dL | 10.1 ± 0.1 mg/dL | 10.5 ± 0.2 mg/dL | 10.1 ± 0.2 mg/dL | 8.8 ± 0.0 mg/dL | 10.9 ± 0.2 mg/dL | 12.6 ± 0.5 mg/dL | 12.0 ± 0.4 mg/dL | 8.6 ± 0.1 mg/dL | 11.5 ± 0.4 mg/dL | 10.8 ± 0.5 mg/dL | 13.4 ± 0.6 mg/dL | –
3 | C=C1[C@H](O)CC(=C/C=C2\CCC[C@]3(C)[C@@H]([C@@H](C)CCCC(C)(C)C)CC[C@@H]23)C[C@H]1O [TMM, 2-methylene-19-nor-20(S)-25-methyl-1α-hydroxycalciferol] | only at the highest dose caused bone resorption in vivo; also recorded: very little bone calcium mobilization activity | 8.7 ± 0.2 mg/dL | 8.8 ± 0.1 mg/dL | 8.7 ± 0.1 mg/dL | 8.7 ± 0.1 mg/dL | 8.7 ± 0.2 mg/dL | 8.7 ± 0.2 mg/dL | 8.6 ± 0.1 mg/dL | 8.9 ± 0.2 mg/dL | 8.5 ± 0.3 mg/dL | 9.0 ± 0.1 mg/dL | 8.9 ± 0.1 mg/dL | 8.8 ± 0.2 mg/dL | 8.8 ± 0.1 mg/dL | 9.7 ± 0.2 mg/dL | 9.9 ± 0.3 mg/dL | 9.5 ± 0.3 mg/dL | Binding to the vitamin D receptor relative to 1,25-(OH)2D3 [3]: one-tenth as well; Intestinal calcium transport activity, in words (CD-1 mice [4]): more intestinal calcium transport activity than does 1,25(OH)2D3; also recorded: very strong effect on intestinal calcium absorption; HL-60 differentiation activity relative to 1,25-(OH)2D3 (HL-60 promyelocytes): essentially equal to that of 1,25-(OH)2D3; Activity in raising serum calcium (bone calcium mobilization) relative to 1,25-(OH)2D3 (CD-1 mice [2]; compared with 1,25-(OH)2D3, Table 1): approximately equal to 1,25-(OH)2D3; also recorded: below that of the native hormone; Activity in raising serum calcium (bone calcium mobilization) relative to 2MD (CD-1 mice [2]; compared with 2MD, Table 1): one-tenth as active as 2MD; also recorded: fell far below
